Experimental data from patent publication US8795992B2, “Yeast with increased butanol tolerance involving cell wall integrity pathway” (Butamax Advanced Biofuels LLC, priority 2008, dated 2014).

Legend:
BY4743 = experiment: Growth of BY4743 in isobutanol (growth yield, OD600); format: cell-based, Saccharomyces cerevisiae; conditions: 1 day (20 hr), 30° C.
[1] = system: Δslt2/Δslt2 (BY4743 having homozygous deletion of the SLT2 gene); experiment: Growth of Δslt2 strain in isobutanol (growth yield, OD600); format: cell-based, Saccharomyces cerevisiae; conditions: 1 day (20 hr), 30° C.

With CC(C)CO [isobutanol] the “OD (A600)” value (BY4743; 0.25 wt % isobutanol) was >1, the “OD (A600)” value (BY4743; 0.50 wt % isobutanol) was >1 and the “OD (A600)” value (BY4743; 0.75 wt % isobutanol) was 0.07. For the same molecule, the “OD (A600)” value (BY4743; 0.87 wt % isobutanol) was 0.07, the “OD (A600)” value (BY4743; 1.00 wt % isobutanol) was 0.04 and the “OD (A600)” value (BY4743; 1.25 wt % isobutanol) was 0.02. For the same molecule, the “OD (A600)” value (BY4743; 1.50 wt % isobutanol) was 0.04, the “OD (A600)” value ([1]; 0.25 wt % isobutanol) was 0.07 and the “OD (A600)” value ([1]; 0.50 wt % isobutanol) was 0.03. For the same molecule, the “OD (A600)” value ([1]; 0.75 wt % isobutanol) was 0.03, the “OD (A600)” value ([1]; 0.87 wt % isobutanol) was 0.01 and the “OD (A600)” value ([1]; 1.00 wt % isobutanol) was 0.01. The “OD (A600)” value ([1]; 1.25 wt % isobutanol) was 0.02 and the “OD (A600)” value ([1]; 1.50 wt % isobutanol) was 0.02.
